Measured values as given in paper PMC12196264, “Design and Synthesis of Pyridine-Based Pyrrolo[2,3-d]pyrimidine Analogs as CSF1R Inhibitors: Molecular Hybridization and Scaffold Hopping Approach” (Pharmaceuticals, 2025).
≈ marks a conversion by molar mass, not a printed value.

Legend:
CSF1R = CSF1R (Homo sapiens, UniProt P07333); assay: CSF1R enzymatic inhibitory assay (TR-FRET LANCE Ultra); assay type: biochemical; conditions: single eight-point titrations, ATP 25 μM, R^2 of fit in parentheses
Sequence of CSF1R (P07333 20-972): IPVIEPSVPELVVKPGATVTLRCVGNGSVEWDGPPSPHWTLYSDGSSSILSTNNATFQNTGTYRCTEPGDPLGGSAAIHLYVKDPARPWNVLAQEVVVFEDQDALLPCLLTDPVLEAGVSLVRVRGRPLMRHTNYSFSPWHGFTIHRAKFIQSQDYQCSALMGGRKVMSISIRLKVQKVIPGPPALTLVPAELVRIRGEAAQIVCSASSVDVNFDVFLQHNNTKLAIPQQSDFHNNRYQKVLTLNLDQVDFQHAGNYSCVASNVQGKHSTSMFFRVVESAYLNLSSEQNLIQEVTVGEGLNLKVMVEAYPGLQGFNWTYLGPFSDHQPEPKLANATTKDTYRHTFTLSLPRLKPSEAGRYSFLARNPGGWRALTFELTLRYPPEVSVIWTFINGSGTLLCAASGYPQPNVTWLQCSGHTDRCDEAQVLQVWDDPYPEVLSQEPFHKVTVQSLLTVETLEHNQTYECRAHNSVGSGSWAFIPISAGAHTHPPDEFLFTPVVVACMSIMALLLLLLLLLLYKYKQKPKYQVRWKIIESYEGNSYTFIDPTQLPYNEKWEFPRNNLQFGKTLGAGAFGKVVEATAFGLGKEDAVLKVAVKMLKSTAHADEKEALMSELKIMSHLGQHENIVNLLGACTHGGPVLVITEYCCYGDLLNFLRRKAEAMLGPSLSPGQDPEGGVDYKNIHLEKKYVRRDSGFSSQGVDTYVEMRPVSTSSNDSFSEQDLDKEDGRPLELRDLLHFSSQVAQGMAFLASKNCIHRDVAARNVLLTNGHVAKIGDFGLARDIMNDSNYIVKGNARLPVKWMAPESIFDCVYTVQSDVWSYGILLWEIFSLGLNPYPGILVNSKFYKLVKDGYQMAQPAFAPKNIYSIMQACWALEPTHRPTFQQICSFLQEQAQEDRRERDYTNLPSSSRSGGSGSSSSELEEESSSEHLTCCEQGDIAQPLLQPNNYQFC
Procedure: The TR-FRET-based LANCE Ultra assay (Perkin Elmer, Waltham, MA, USA) was used to determine IC50 values for various CSF1R inhibitors. Kinase activity and inhibition in this assay was measured as previously reported. Scigilian Analyze software version 5.8.5.15 (Scigilian, Montreal, QC, Canada) was used.

cKIT = cKIT (Homo sapiens, UniProt P10721); assay: KIT-WT LanthaScreen binding assay (Kd); conditions: single eight-point titrations, TR-FRET LanthaScreen Binding Assay; R^2 of fit in parentheses; read-out: Enzymatic Assay KIT (Kd)
Sequence of cKIT (P10721 26-976): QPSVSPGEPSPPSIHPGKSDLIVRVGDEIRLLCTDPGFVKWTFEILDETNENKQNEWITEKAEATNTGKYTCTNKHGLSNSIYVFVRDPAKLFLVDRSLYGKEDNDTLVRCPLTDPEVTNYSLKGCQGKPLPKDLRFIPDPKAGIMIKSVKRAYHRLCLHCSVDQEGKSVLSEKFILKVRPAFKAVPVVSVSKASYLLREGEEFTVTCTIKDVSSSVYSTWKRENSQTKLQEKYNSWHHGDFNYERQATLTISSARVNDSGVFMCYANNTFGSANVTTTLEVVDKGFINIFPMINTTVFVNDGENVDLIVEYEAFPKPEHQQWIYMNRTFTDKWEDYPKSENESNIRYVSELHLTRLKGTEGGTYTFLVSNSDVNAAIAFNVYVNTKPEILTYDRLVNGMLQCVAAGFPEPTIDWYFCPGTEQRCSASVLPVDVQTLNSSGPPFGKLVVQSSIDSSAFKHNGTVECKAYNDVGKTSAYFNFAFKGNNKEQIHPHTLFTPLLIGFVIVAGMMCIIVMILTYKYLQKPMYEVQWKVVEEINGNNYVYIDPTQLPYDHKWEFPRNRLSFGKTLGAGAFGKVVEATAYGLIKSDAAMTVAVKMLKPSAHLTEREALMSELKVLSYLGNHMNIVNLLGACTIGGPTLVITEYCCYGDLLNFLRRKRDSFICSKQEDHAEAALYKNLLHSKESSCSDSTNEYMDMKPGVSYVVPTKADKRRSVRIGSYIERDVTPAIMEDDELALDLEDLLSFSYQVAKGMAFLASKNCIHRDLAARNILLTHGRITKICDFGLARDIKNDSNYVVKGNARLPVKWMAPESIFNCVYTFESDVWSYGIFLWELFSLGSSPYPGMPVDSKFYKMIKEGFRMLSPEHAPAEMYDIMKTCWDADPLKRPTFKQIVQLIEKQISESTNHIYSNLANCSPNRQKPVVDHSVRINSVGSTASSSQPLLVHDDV
Procedure: The TR-FRET-based LanthaScreen Binding Assay was performed to determine Kd values of synthesized derivatives against cKIT.
Subsequently, 8 µL of kinase anti-GST antibody mixture was added, followed by incubation at 4 °C for 30 min in a pre-cooled, humidified box to minimize edge effects. The reaction was initiated by adding 5 µL of tracer working solution and mixed on a Bioshake 5000 microplate shaker (Q Instruments, Jena, Germany). […] Kd values were calculated from sigmoidal dose-response curves using Scigilian Analyze software version 5.8.5.15 (Scigilian, Montreal, QC, Canada).

[1] = system: Ba/F3 cells engineered to be dependent on CSF1R; assay: Cell viability assay with Ba/F3-hCSF1R cells; assay type: cell-based; conditions: for IC50: Mus musculus, BaF3, Ba/F3 cells dependent on CSF1R, with standard deviation, read-out: Cellular Assay IC50 (μM), Ba/F3 CSF1R
Procedure: (§1) Given the promising enzymatic activity of the synthesized derivatives, cellular assays were performed using Ba/F3 cells engineered to depend on constitutively active CSF1R. […] We have also previously observed a low correlation between enzymatic and cellular activities, which may arise from the enzymatic protein construct not accurately mimicking the active conformation of CSF1R in a cellular context.
(§2) Performed as reported previously.

[2] = system: Ba/F3 cells engineered to be dependent on CSF1R but added additional IL-3; assay: Cell viability assay with Ba/F3-hCSF1R cells with added IL-3; assay type: cell-based; conditions: Mus musculus, BaF3; Ba/F3 CSF1R cells with additional IL-3; read-out: Cellular Assay IC50 (μM), Ba/F3 IL-3
Procedure: as §1, §2

Kinetic solubility = assay type: physicochemical; conditions: aqueous buffer, kinetic from dmso stock; spectrophotometric, pH 7.4 in HEPES buffer
Procedure: (§3) The aqueous solubility of the compounds and metabolic stability under oxidative conditions was performed as described previously.

[3] = Microsomal stability, mouse liver microsomes; assay type: in vitro ADME; conditions: mouse liver microsome
Procedure: as §3

MDCK permeability assay = assay type: in vitro ADME, canine; conditions: dog, MDCK monolayer; for Papp A→B: A–B direction; for Papp B→A: B–A direction; for efflux ratio: read-out: MDCK Ratio (Papp B–A/A–B)
Procedure: Six selected compounds were assessed for metabolic stability (clearance) in mouse liver microsomes (MLM) and human liver microsomes (HLM), and apparent permeability (Papp) using a MDCK permeability assay. […] Although currently limited by solubility and permeability, its metabolic profile provides a starting point for targeted structural modifications aimed at overcoming these challenges.

Row | IC50 (CSF1R) [nM] | Kd (cKIT) [nM] | IC50 [1] [µM] | IC50 [2] [µM] | solubility kinetic (Kinetic solubility) [µM] | MLM in vitro intrinsic clearing [3] [µL/min/mg] | Papp A→B (MDCK permeability assay) [×10⁻⁶ cm/s] | Papp B→A (MDCK permeability assay) [×10⁻⁶ cm/s] | efflux ratio (MDCK permeability assay) | Compound | Cellular activity in Ba/F3 CSF1R cells (in words) ([1]; Ba/F3 cells dependent on constitutively active CSF1R)
1 | 857 | > 1000 | 1.16 ± 0.22 | 1.39 ± 0.4 | 20.9 (≈ 7.2 µg/mL) | 277.3 | 34 | 24.7 | 0.72 | CN(Cc1ccc(NCc2ccccc2)nc1)c1ncnc2[nH]ccc12 [Compound 4a, N-((6-(Benzylamino)pyridin-3-yl)methyl)-N-methyl-7H-pyrrolo[2,3-d]pyrimidin-4-amine] | relatively high cellular activity
2 | > 1000 | > 1000 | > 10 | > 10 | 441 (≈ 152 µg/mL) | 101.9 | 42 | 28.8 | 0.69 | CN(Cc1ccc(NCc2ccccn2)nc1)c1ncnc2[nH]ccc12 [Compound 4b, N-Methyl-N-((6-((pyridin-2-ylmethyl)amino)pyridin-3-yl)methyl)-7H-pyrrolo[2,3-d]pyrimidin-4-amine] | –
3 | > 1000 | > 1000 | 9.96 ± 0.02 | > 10 | 20.9 (≈ 8.64 µg/mL) | 150.7 | 18.3 | 10 | 0.55 | CN(Cc1ccc(NCc2ccc(C(F)(F)F)nc2)nc1)c1ncnc2[nH]ccc12 [Compound 4c, N-Methyl-N-((6-(((6-(trifluoromethyl)pyridin-3-yl)methyl)amino)pyridin-3-yl)methyl)-7H-pyrrolo[2,3-d]pyrimidin-4-amine] | –
4 | > 1000 | 397 | 8.46 ± 0.89 | > 10 | 70.4 (≈ 30.7 µg/mL) | 1540.3 | 15.9 | 4.4 | 0.27 | Cc1cccc(CN(C)c2ncnc3[nH]cc(-c4ccc(NCc5cccnc5)nc4)c23)c1 [Compound 8, N-Methyl-N-(3-methylbenzyl)-5-(6-((pyridin-3-ylmethyl)amino)pyridin-3-yl)-7H-pyrrolo[2,3-d]pyrimidin-4-amine] | –
5 | > 1000 | > 1000 | – | – | – | – | – | – | – | Cc1cccc(CN(C)c2ncnc3[nH]c(-c4ccc(NCc5cccc(C)c5C)nc4)cc23)c1 [Compound 12d, 6-(6-((2,3-Dimethylbenzyl)amino)pyridin-3-yl)-N-methyl-N-(3-methylbenzyl)-7H-pyrrolo[2,3-d]pyrimidin-4-amine] | –
6 | 10.5 | > 1000 | 6.24 | 9.25 | – | – | – | – | – | COc1ccc(CNc2ccc(-c3cc4c(N(C)Cc5cccc(C)c5)ncnc4[nH]3)cn2)cc1 [Compound 12e, 6-(6-((4-Methoxybenzyl)amino)pyridin-3-yl)-N-methyl-N-(3-methylbenzyl)-7H-pyrrolo[2,3-d]pyrimidin-4-amine] | –
7 | 6 | > 1000 | – | – | – | – | – | – | – | Cc1cccc(CN(C)c2ncnc3[nH]c(-c4ccc(NCc5ccccc5)nc4)cc23)c1 [Compound 14a, 6-(6-(Benzylamino)pyridin-3-yl)-N-methyl-N-(3-methylbenzyl)-7H-pyrrolo[2,3-d]pyrimidin-4-amine] | –

Row | Compound | IC50 (CSF1R) [nM] | Kd (cKIT) [nM] | IC50 [1] [µM] | IC50 [2] [µM] | solubility kinetic (Kinetic solubility) [µM] | MLM in vitro intrinsic clearing [3] [µL/min/mg] | Papp A→B (MDCK permeability assay) [×10⁻⁶ cm/s] | Papp B→A (MDCK permeability assay) [×10⁻⁶ cm/s] | efflux ratio (MDCK permeability assay) | Cellular activity in Ba/F3 CSF1R cells (in words) ([1]; Ba/F3 cells dependent on constitutively active CSF1R)
8 | FC(F)(F)c1ccc(CNc2ccc(Cc3c[nH]c4ncc(Cl)cc34)cn2)cn1 [Pexidartinib, reference compound] | – | – | 0.064 ± 0.04 | 6.54 ± 0.61 | 20.5 (≈ 8.57 µg/mL) | – | 4.5 | 1.5 | – | –
